Like-named read-outs stand apart in the source and are kept apart here.
Assays:
DNA-PK/protein complex = DNA-PK/protein complex (Homo sapiens (Human), UniProt P78527); experiment: DNA-PK assay (biochemical), flashplate kinase assay
Protocol: A) DNA-PK Assay (Biochemical)
The kinase assay was carried out in streptavidin-coated […] microtitre flashplates. […] The reaction was stopped using 50 μl/well of 200 mM EDTA. After incubation for a further 30 min at room temperature, the liquid was removed. Each well was washed three times with 100 μl of 0.9% saline solution. A nonspecific reaction (blank value) was determined using 10 μM of an innate kinase inhibitor. The radioactivity measurement was carried out using a TopCount. IC50 values were calculated in RS1.

[1] = target: phospho-serine 2056 DNA-PK in HCT116 cells (Homo sapiens (Human), UniProt P78527); experiment: DNA-PK phosphorylation at serine 2056 (cellular), ELISA in bleomycin-treated HCT116 cells; format: cell-based; settings: read-out: IC50 pDNA-PK
Protocol: HCT116 cells were cultivated at 37° C. and 10% CO2 in MEM alpha medium with 10% of foetal calf serum and 2 mM glutamine. The cells were detached from the base of the culture vessels with the aid of trypsin/EDTA, centrifuged off in centrifuge tubes, taken up in fresh medium, and the cell density was determined. 100,000 cells were sown in 1 ml of culture medium per cavity of a 24-well cell culture plate and cultivated overnight. Next day, 10 μM bleomycin (DNA intercalator and inductor of DNA double-strand breaks) and test substances in fresh culture medium were added to the cells, and these were cultivated for a further six hours. […] The 96-well ELISA plates were subsequently treated with a detection antibody (Abcam ab79444: total DNA-PK) and a streptavidin-HRP conjugate. The development of the enzymatic reaction was carried out with the aid of a chemiluminescent reagent, the chemiluminescence was measured with the aid of a Mithras LB940. The signals with the phospho-DNA-PK-specific antibody were standardised to the signal with the antibody against the total protein DNA-PKc. […] The DMSO control was used as blank.

Kv11.1 (hERG) channel [2] = target: T1, Kv11.1 (hERG) channel (Homo sapiens (Human), UniProt Q12809); experiment: Kv11.1 (hERG) ion channel activity (patch clamp assay)
Protocol: (§1) C) Kv11.1 (hERG) ION CHANNEL ACTIVITY (Patch Clamp Assay)
(§2) The patch-clamp measurement was carried out at room temperature in whole-cell configuration on human embryonic kidney cells (HEK293) which have been transfected in a stable manner with the hERG gene.
(§3) The whole-cell configurations were carried out using an automated patch clamp device (Patchliner™, Nanion Technologies, Munich). This is a glass chip-based system with which automated whole-cell measurements on up to 8 cells simultaneously are possible. The glass chip has a hole of defined size to which the cell is transferred into the Gigaseal by application of a reduced pressure and brought into the whole-cell configuration. Buffer, cell suspension and test substances were added to microchannels of the chip using a Teflon-coated pipette. The cells were clamped to a holding potential of −80 mV. For measurement of substancepromoted inhibition of the Kv11.1 channel, the following voltage protocol was applied at 10-second intervals: 51 ms/−80 mV, 500 ms/+40 mV, 500 ms/−40 mV, 200 ms/−80 mV. The leakage current is subtracted by means of the P4 method. The cells were resuspended in extracellular buffer (EC) and applied to the chip. After the cell had been collected, the seal was improved by addition of a seal enhancer buffer. As soon as the whole-cell configuration had been reached, the seal enhancer buffer was washed out and replaced by extracellular buffer. The measurement started in EC for 1.5 min. DMSO (vehicle control, 0.1% of DMSO) was then applied, and the control current was recorded for 3 min. The test substance was subsequently added twice in the same concentration, and the potassium current was measured for 3.5 min in each case.
(§4) The reference substance used was the Kv11.1 (hERG) ion channel blocker quinidine. The effects of test substances and quinidine were standardised to the associated vehicle control. The effect on the Kv11.1 (hERG) channel activity was assessed from the potassium current at −40 mV. For the calculation, the current was evaluated for the respective final trace.
(§5) During the measurement, an aliquot of the test substance was taken for concentration determination. The sample was measured immediately by HPLC, and the final concentration was determined from a calibration curve.

Kv11.1 (hERG) channel [3] = target: T1, Kv11.1 (hERG) channel
Protocol: as §1, §2, §3, §4, §5

[4] = cellular, HCT116, 10 μM bleomycin, six hours

T1 sequence (Q12809 whole entry): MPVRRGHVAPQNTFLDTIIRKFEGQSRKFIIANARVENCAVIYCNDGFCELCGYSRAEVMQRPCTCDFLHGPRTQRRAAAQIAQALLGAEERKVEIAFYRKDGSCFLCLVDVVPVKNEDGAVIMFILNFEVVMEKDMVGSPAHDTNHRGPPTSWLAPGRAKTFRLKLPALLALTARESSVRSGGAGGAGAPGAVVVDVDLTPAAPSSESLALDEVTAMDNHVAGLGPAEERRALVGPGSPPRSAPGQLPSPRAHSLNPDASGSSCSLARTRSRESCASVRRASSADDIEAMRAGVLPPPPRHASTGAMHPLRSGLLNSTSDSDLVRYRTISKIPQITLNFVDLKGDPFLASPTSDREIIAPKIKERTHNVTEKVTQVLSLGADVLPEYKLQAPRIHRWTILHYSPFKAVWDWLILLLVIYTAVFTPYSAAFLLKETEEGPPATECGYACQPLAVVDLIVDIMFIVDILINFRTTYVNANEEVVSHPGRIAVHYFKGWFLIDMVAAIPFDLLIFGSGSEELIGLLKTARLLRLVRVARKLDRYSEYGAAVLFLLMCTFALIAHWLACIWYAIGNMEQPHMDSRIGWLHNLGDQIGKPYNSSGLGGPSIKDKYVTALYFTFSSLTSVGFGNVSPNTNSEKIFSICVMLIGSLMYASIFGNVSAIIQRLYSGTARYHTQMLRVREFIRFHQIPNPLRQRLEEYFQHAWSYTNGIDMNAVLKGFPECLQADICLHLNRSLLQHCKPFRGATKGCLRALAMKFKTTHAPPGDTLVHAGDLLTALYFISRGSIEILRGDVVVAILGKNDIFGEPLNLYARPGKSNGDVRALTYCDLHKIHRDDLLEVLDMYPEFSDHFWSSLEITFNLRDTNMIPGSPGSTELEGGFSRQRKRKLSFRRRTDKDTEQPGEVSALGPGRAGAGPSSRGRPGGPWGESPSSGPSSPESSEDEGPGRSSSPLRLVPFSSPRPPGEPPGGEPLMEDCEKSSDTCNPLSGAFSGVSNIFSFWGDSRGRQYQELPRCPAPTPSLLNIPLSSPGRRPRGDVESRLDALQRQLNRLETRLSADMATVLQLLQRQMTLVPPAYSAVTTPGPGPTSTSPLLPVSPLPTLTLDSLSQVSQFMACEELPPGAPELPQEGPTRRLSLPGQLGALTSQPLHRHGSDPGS

COc1nnc(Cl)cc1C(O)c1ccc(F)c(-c2ncnc3cc(N4CCOCC4)ccc23)c1 (centres unmarked) [Example 9]
IC50 (DNA-PK/protein complex; enzymatic, 5 μM ATP): 0.003 to 0.007 µM
IC50 [1, 4]: < 0.5 µM
Ki (Kv11.1 (hERG) channel [2]; read-out: Ki [Kv1.11 hERG], HEK293 transfected with hERG gene, whole-cell): < 10 µM

CCNCc1csc(C(O)c2cc(-c3ncnc4cc(N5CCOCC5)ccc34)c(F)cc2Cl)n1 (centres unmarked) [Example 190]
Ki (Kv11.1 (hERG) channel [3]): 15 to 25 µM

Cn1nccc1C(O)c1ccc(F)c(-c2nc(Cl)nc3cc(N4CCOCC4)ccc23)c1 (centres unmarked) [Example 214, [3-(2-Chloro-7-morpholin-4-yl-quinazolin-4-yl)-4-fluoro-phenyl]-(2-methyl-2H-pyrazol-3-yl)-methanol]
IC50 (DNA-PK/protein complex; enzymatic, 5 μM ATP): 0.003 to 0.007 µM
IC50 [1, 4]: 10 to 30 µM
Ki (Kv11.1 (hERG) channel [2]): 15 to 25 µM

COc1nccnc1C(C(N)=O)c1cc(-c2ncnc3cc(N4CCOCC4)ccc23)ccc1F (centres unmarked) [Example 316]
IC50 (DNA-PK/protein complex; biochemical DNA-PK assay): > 0.03 µM
IC50 ([1]; DNA-PK phosphorylation at serine 2056, HCT116 cells): 5 to 10 µM
Ki (Kv11.1 (hERG) channel [2]): 15 to 25 µM

OC(c1ccc(F)c(-c2ncnc3cc(N4CCOCC4)ccc23)c1)c1nccnc1I (centres unmarked) [Example 462, [4-Fluoro-3-(7-morpholin-4-yl-quinazolin-4-yl)-phenyl]-(3-iodo-pyrazin-2-yl)-methanol]
Ki (Kv11.1 (hERG) channel [2]; read-out: Ki [Kv1.11 hERG], hERG patch clamp assay): 15 to 25 µM
